# Data published in US7341991B2, “Inhibitors of amyloid precursor protein processing” (Posco, priority 2004, dated 2008).
# “Also recorded” adds a separate entry of the source. Where no end group is shown, it is not given here.
# Assays:
# [1] = system: γ-secretase cleavage in KEK293 APP cells; test: Cell based γ-secretase assay (α-CTF, Western); parameters: species or system human; conditions: 9 hours treatment, α-CTF accumulation
# Experimental: In order to test these peptides in the cell for their inhibitory effect on γ-secretase cleavage, a cell based assay was developed. After KEK293 APP cells were cultured in 6 well culture plates with 90% confluency, the cells were treated for 9 hours with N-[N-(3,5-difluorophenacetyl)-L-alanyl]-(S)-phenylglycine t-butyl ester (DAPT) (Dovey H F et al, J. Neurochemistry 2001; 76:173-181), which is a known γ-secretase inhibitor, and complementary peptides. The cells in each well were lysed and these lysates were separated with 15% tris-tricine gel. Western analysis was performed with R1 antibody as primary antibody and goat anti-rabbit-HRP as secondary antibody.
# [2] = molecular target: T1, Sub-ST6Gal1 (DYEALTLQAKEFQMPKSQE) (Rattus norvegicus, UniProt P13721); test: Binding of bio-Sub-ST6Gal1 to immobilized HC peptide; conditions: peptide coupled on microtiter plate
# T1 construct: 19 amino acid region (DYEALTL/QAKEFQMPKSQE) that contains the β-cleavage site for investigation was chosen; purchased Peptron, Inc; host or cells: chemical synthesis
# Experimental: (§1) Reacti-Bind™ maleic anhydride-activated polystyrene plate (Pierce, IL, USA) was coated with 50 μl of HC peptide (200 μM in distilled water) by chemical coupling for 3 h at room temperature (RT) and washed three times with phosphate buffered saline (PBS) containing 0.05% tween 20 (PBST). The plate was blocked with blocking buffer (0.5% gelatin in PBS) for 1 h at RT. After discarding blocking buffer, biotinylated BACE1 substrates (200 μM) in blocking buffer was applied on the plate and incubated for 2.5 h at RT. Each well was washed three times with PBST. The bound biotinylated BACE1 substrates were detected by incubation with streptavidin-horseradish peroxidase (Str-HRP, 125 mU/ml in blocking buffer) for 2 h at RT. Color reaction was carried out with 50 μl of 3,3′,5,5′-Tetramethylbenzidine Liquid Substrate (Sigma-Aldrich, MO, USA). After stopping the reaction by addition of an equal volume of 1 N HCl, absorbance at 450 nm was read in an automated ELISA reader (EL 312e, Bio-Tek Instruments, VT, USA). All assays were carried out in duplicate.
# It was investigated if HC peptide would show specificity for APP in terms of the inhibition of cleavage by BACE1. ST6Gal1 is also cleaved by BACE1. For this experiment, 19 amino acid region (DYEALTL/QAKEFQMPKSQE) that contains the β-cleavage site for investigation was chosen. The 19 amino acid peptide was designated as Sub-ST6Gal1. […]
# [3] = system: cleavage of Substrate M by rhBACE (recombinant human β-secretase); test: Fluorometric (FRET) assay for cleavage of F-Substrate M by β-secretase; assay type: biochemical; conditions: for inhibitory activity group on Substrate M cleavage: tested at various concentrations (FIG. 8)
# From the text: This assay system utilizes fluorescence resonance energy transfer (FRET) technology. Substrate M was synthesized with two fluorophores, a fluorescent donor and a proprietary quenching acceptor (purchased from a commercial source, R&D Systems). […] Upon cleavage of substrate by β-secretase, the fluorophore is separated from the quenching group, restoring the full fluorescence yield of donor.
# Substrate labeled with fluorophores will be called F-Substrate M (R&D Systems). Recombinant human β-secretase will be called rhBACE (recombinant human β-site APP cleavage enzyme) (purchased from R&D systems).
# […] Cleavage by rhBACE was detected by reading emitted fluorescence level.
# In this assay system, fluorescence resonance energy transfer (FRET) technology was utilized. […] After pre-incubation, substrate and HC peptide mixture in assay buffer was transferred to FluoroNunc™ 96 well white plate (Nunc, Roskilde, Denmark), and rhBACE1 (70 nM) was added. Time-dependent emission of fluorescence (excitation at 320 nm, emission at 405 nm) was monitored in a Molecular Devices SpectraMax Gemini EM fluorescence reader (CA, USA) for 1 h at 37° C. All assays were carried out in duplicate.
# [4] = molecular target: T2, cleavage of Sub-ST6Gal1 by rhBACE1 (Rattus norvegicus, UniProt P13721); test: HPLC analysis of cleavage of ST6Gal1 substrate by β-secretase; assay type: biochemical, human; conditions: up to 10 inhibitor/substrate ratio; Sub-ST6Gal1 50 μM, 500 nM rhBACE1
# T2 construct: Sub-ST6Gal1 (50 μM, DYEALTLQAKEFQMPKSQE) peptide corresponding to the β-cleavage site of ST6Gal1; purchased R&D Systems (enzyme); A&Pep Co., Inc. (non-labelled peptides)
# From the text: (§2) One of the advantages of the APP inhibitor described in the present invention is that it is a peptide or a mimetic that bind to the β-secretase cleavage site of APP, thus not affecting other β-secretase substrates. To confirm the specificity of the inventive APP inhibitor, two different types of substrates were used, APP Sub M and ST6Gal1. Both substrates are cleaved by β-secretase under normal conditions and the effect of the inventive APP inhibitor on the substrate cleavage was monitored by HPLC (See the schematic diagram in FIG. 16.) To carry out these experiments, the concentration of β-secretase required for cleavage of both substrates was determined as shown in FIG. 17. For substantial cleavage of ST6Gal1 substrate, 420 nM of the enzyme was required. Therefore, 420 nM of β-secretase was used for the following experiment.
# Various concentrations of HC peptide were preincubated with either Sub M (50 μM) or Sub-ST6Gal1 (50 μM, DYEALTLQAKEFQMPKSQE) peptide corresponding to the β-cleavage site of ST6Gal1 for 2 h at RT. The mixtures containing Sub M was treated with 50 nM of rhBACE1 and that containing Sub-ST6Gal1 was treated with 500 nM enzyme for 12 h at RT. Roughly 50% of each BACE1 substrate was cleaved in the absence of HC peptide. The cleavage products were separated on a C18 reversed-phase HPLC column as described above.
# [5] = system: APP processing in HEK293-APP cells; test: Cell based assay of APP processing (βCTF, Western blot) in HEK293-APP cells; parameters: species or system human; conditions: βCTF
# Experimental: In the neuronal cells of the brain, APP is processed by α-secretase or β-secretase. To investigate the effects of the inhibitors on the cell, a cell based assay system was developed as described in FIG. 10. C-terminal fragment of APP remaining on the cell membrane was detected by Western blot. The resulting C-terminal fragments, αCTF or βCTF are further processed by γ-secretase. However, if the cells are treated with the γ-secretase inhibitor, this processing is blocked. As a result, αCTF or βCTF accumulate in the cell. If β-secretase inhibitor or APP inhibitor is added, this processing is blocked and βCTF disappears.
# To test APP inhibitor activities in cells, three complementary peptides, c-Sub M, c-Sub MΔC6, and c-Sub MΔN1C1, which show high absorbance in binding test, were added to whole cell extracts of HEK293-APP cells (Lanes 2, 3, and 4 in FIG. 11). In addition, γ-secretase inhibitor and cholesterol were added to the cells to increase βCTF level. Commercially available peptide-based β-secretase inhibitor was included as control (Lane 6, FIG. 11). To detect the N-terminal fragment of β-amyloid which is a product of APP processing, 6E10 antibody was employed. […] Recently, it has been reported that the commercially available peptide-based inhibitor had to be linked to an oligoarginine transporter peptide to have inhibitory activity against cells. Therefore, mimetic approach is adopted to produce cell permeable analogs. (Chang et al. J. Neurochemistry 2004; 89:1409-1416).
# After confirming the ability of the oligo-arginine coupled APP inhibitors to enter the cells, the inhibitors were applied to HEK293-APP cells overexpressing APP to test their inhibitory activities on APP processing. […] This inhibitor started to show significant inhibitory activity beginning from 0.1 μM (lower panel).
# [6] = system: cleavage of Sub M by rhBACE1; test: HPLC analysis of cleavage of Substrate M by β-secretase; assay type: biochemical; conditions: 25-fold amount of inhibitor; 420 nM β-secretase
# Experimental: Substrate M (100 μM) was preincubated with complementary peptides ([…]) in assay buffer (100 μl) overnight at RT. rhBACE (140 nM) in assay buffer was added and incubated for 11 hr at RT. Cleavage products of Substrate M by rhBACE were quantitated after separation by C-18 reversed-phase column chromatography (GRACE VyDAC).
# as §2
# Reversed-phase HPLC was also used to analyze the products of enzyme action in vitro. […] The cleavage products were identified at 215 nm and quantitated by integrating the area under each peak. […]
# [7] = system: γ-secretase (membrane fractions of N2a cells); test: γ-Secretase activity assay on membrane fractions of N2a cells; assay type: biochemical, mouse; conditions: 200 μM peptide, 12.5 μM fluorogenic substrate, 1 hour preincubation
# Experimental: Since γ-secretase is composed of four components, cloning of γ-secretase gene is impossible. Therefore, cell extracts were used as γ-secretase source. To obtain the cell extracts, after cell lysis with extraction buffer, the lysate was centrifuged at 10,000×g for 1 minute. Afterward, 2× reaction buffer and fluorogenic substrate was mixed and added to the cell lysate. Then, this mixture was incubated at 37° C. and γ-secretase activity was detected at excitation 335 to 355 nm and emission 495 to 510 nm.
# γ-Secretase activity assay was performed on membrane fractions of N2a cells in the presence of several complementary peptides. After 12.5 μM fluorogenic substrate and 200 μM each of the complementary peptides were preincubated for 1 hour, γ-secretase was added to the mixture. In the course of time, the fluorogenic substrate was cleaved by the γ-secretase.
# [8] = system: Substrate M (SEVNLDAEFR, β-secretase cleavage site of APPsw); test: Binding of biotin-labeled Substrate M to immobilized complementary (HC) peptides; conditions: biotin-labeled Sub M, peptide immobilized on plate
# Experimental: (§3) Complementary peptides (0.2, 2, 20, and 200 μM) were dissolved in phosphate buffered saline (PBS) (pH 7.4) and fixed to microtiter wells for 5 hr at 37° C. The wells were blocked with blocking buffer (3% BSA/PBS) for 1 hr at 37° C. Either N-terminally biotinylated Substrate W or M (20 μM) in blocking buffer was added and incubated for overnight at 4° C. Streptavidin-horseradish peroxidase in blocking buffer was added to detect resulting bound substrates. The plate was incubated for 2 hr at room temperature (RT), followed by addition of 3, 3′, 5,5′-tetramethyl-benzidine (TMB) as substrate for horseradish peroxidase for color reaction.
# as §1
# [9] = molecular target: T3, Substrate W (SEVKMDAEFR, β-secretase cleavage site of wild type APP) (Homo sapiens, UniProt P05067); test: Binding of biotin-labeled Substrate W to immobilized complementary (HC) peptides
# T3 construct: purchased Peptron, Inc; host or cells: chemical synthesis
# Experimental: as §3
# In particular, for Substrate W, complementary peptides (200 μM) dissolved in phosphate buffered saline (PBS) (pH 7.4) were chemically coupled to Reacti-Bind Maleic Anhydride Activated Polystyrene wells (Pierce Biotechnology, Inc.) for overnight at room temperature (RT). Remaining active sites of the plate were inactivated by adding ethanolamine (1 M) for 1 hr at RT. The wells were blocked with blocking buffer (3% BSA/PBS) for 1 hr at RT. N-terminally biotinylated Substrate W (20 μM) in blocking buffer was added and incubated for 3 hr at RT. Streptavidin-horseradish peroxidase in blocking buffer was added to detect resulting bound substrates. The plate was incubated for 2 hr at room temperature (RT), followed by addition of 3,3′,5,5′-tetramethyl-benzidine (TMB) as substrate for horseradish peroxidase for color reaction.
# as §1
# rhBACE1 = molecular target: T4, rhBACE1 (Homo sapiens, UniProt P56817); test: ELISA binding of rhBACE1 to immobilized c-Sub M
# T4 construct: purchased R&D Systems
# T4 sequence (P56817 46-501): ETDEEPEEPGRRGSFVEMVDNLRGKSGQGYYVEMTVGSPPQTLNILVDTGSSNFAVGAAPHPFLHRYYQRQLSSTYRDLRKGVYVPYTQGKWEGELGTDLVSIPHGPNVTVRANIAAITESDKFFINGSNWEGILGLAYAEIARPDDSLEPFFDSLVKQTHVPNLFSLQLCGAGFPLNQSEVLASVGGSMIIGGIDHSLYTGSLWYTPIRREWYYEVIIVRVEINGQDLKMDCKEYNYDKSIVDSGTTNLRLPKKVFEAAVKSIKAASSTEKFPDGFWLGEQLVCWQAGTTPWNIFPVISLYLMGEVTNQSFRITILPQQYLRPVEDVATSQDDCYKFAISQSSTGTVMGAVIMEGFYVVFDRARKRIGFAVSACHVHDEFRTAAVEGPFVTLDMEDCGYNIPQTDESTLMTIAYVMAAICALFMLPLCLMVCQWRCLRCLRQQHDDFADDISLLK
# From the text: In one embodiment of the present invention, four HC decapeptides targeted to either wild type APP or APPsw may be designed. […] Therefore, there is possibility that c-Sub M or any compounds derived from c-Sub M may inhibit production of Aβ from wild type APP in cells.
molecule,measurement,setting,value
"C[C@H](NC(=O)Cc1cc(F)cc(F)c1)C(=O)N[C@H](C(=O)OC(C)(C)C)c1ccccc1 [DAPT, N-[N-(3,5-difluorophenacetyl)-L-alanyl]-(S)-phenylglycine t-butyl ester]",inhibition of γ-secretase activity in cells,[1],inhibits γ-secretase activity very effectively
EFCIQIHF [c-Sub M ΔN1C1],binding of bio-Sub-ST6Gal1,[2],also bound
same,inhibitory activity group on Substrate M cleavage,[3],most active
same,inhibition of cleavage of Sub-ST6Gal1,[4],about 10%
same,inhibitory activity on APP processing,[5],none of the inhibitors tested showed inhibitory activity
FCIQIHF (FCIQIHF-NH2) [c-Sub M ΔN2C1],inhibitory activity group on Substrate M cleavage,[3],most active
same,Sub M cleavage blocked,[6],about 60%
PQQYRCHRQR [rCh2 (3′→5′)],inhibitory effect on γ-secretase activity,[7],about 80%
"SEFCIQIHFR-NH2 [c-Sub M, SEFCIQIHFR]",binding to Substrate M,[8],binds to Sub M appreciably and bind and binds its substrate Sub M and highest binding
same,binding to Substrate M,[8]; listed as c-Sub,bound
same,binding to Sub W relative to c-Sub W,[9]; bio-Sub W,4 fold
same,binding to Substrate W,"[9]; biotin-labeled Sub W, peptide immobilized on plate",binds the wild type substrate Sub W efficiently
same,inhibition of cleavage of Substrate M by β-secretase,"[3]; in vitro, rhBACE1",inhibit cleavage
same,inhibitory activity group on Substrate M cleavage,[3],less activity
same,inhibitory activity on APP processing,[5],does not inhibit the processing of APP in cells; also recorded: none of the inhibitors tested showed inhibitory activity
same,binding to rhBACE1,rhBACE1,does not bind to rhBACE1
same,entry / transport into the cells,HEK293-APP cells,does not enter the cells
